# Measurements taken from patent publication US7759385B2, “4-substituted 1-aminocyclohexane compounds for utilization as ORL1-receptor and mu-opiate receptor ligands” (priority 2002, dated 2010).
# Biological target: human μ opiate receptor (Homo sapiens, UniProt P35372)
# Test: μ opiate receptor binding assay, membrane preparation of CHO-K1 cells, [3H]-naloxone (or DAMGO) displacement
# Conditions: radioligand [3H]-naloxone 1 nmole/l; Cheng-Prusoff
# Chain of human μ opiate receptor (P35372 whole entry): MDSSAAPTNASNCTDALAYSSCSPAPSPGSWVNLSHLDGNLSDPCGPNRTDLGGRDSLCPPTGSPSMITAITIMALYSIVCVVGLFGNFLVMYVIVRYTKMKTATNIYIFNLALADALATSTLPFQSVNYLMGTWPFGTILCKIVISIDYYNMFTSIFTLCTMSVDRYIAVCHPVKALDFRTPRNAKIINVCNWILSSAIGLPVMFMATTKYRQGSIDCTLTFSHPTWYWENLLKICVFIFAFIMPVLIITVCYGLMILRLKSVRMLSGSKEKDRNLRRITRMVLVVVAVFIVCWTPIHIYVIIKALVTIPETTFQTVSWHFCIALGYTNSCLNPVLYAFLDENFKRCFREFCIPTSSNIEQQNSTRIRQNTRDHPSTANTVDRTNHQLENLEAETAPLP
structure (smiles),measurement,value
"CN(C)C1(c2ccccc2)CCC(NC(=O)N2CCC(C3C=Nc4ccc(F)cc43)CC2)CC1 (stereo not shown) [Example 34, 4-(5-fluoro-1H-indol-3-yl)piperidine-1-carboxylic acid-(4-dimethylamino-4-phenylcyclohexyl)-amide]",Ki,120 nM
